Experimental data as given in ChEMBL document CHEMBL1201862, “PubChem BioAssay data set” (2004).
The source made the active and inactive calls.

Tests used:
[1] = target: DNA (cytosine-5)-methyltransferase 1 (Homo sapiens, UniProt P26358); test: DNMT1 methyltransferase inhibitors, confirmation, biochemical, fluorescent molecular beacon (AID 602386); assay type: functional
[2] = target: T1, Endoribonuclease toxin MazF (Escherichia coli K-12, UniProt P0AE70); test: fluorescent RNA oligo signal without MazF, dose response, counter-screen for MazEF activator project, biochemical, fluorescence, single-stranded RNase substrate (AID 588502); assay type: functional
T1 sequence (P0AE70 whole entry): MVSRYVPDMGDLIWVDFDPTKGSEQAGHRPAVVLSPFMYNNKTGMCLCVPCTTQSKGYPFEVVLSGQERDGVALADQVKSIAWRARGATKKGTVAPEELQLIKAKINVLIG

[3] = target: T2, Caspase-3 (Homo sapiens, UniProt P42574); assay type: functional;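 further: Dose-response selectivity test against caspase-3 for candidate inhibitors of sentrin-specific proteases (SENPs)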
T2 sequence (P42574 whole entry): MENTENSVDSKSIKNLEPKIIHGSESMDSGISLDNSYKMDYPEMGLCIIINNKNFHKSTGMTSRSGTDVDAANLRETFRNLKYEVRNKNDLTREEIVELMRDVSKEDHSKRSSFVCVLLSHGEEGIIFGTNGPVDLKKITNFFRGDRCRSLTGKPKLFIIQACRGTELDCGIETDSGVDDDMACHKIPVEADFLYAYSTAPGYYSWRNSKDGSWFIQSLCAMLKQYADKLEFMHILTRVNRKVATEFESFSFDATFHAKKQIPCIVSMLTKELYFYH

[4] = target: T3, Sentrin-specific protease 6 (Homo sapiens, UniProt Q9GZR1); assay type: functional;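 further: Luminescence-based dose-response confirmatory assay of SENP6 inhibition, following up an ultra-high-throughput screen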
T3 sequence (Q9GZR1 whole entry): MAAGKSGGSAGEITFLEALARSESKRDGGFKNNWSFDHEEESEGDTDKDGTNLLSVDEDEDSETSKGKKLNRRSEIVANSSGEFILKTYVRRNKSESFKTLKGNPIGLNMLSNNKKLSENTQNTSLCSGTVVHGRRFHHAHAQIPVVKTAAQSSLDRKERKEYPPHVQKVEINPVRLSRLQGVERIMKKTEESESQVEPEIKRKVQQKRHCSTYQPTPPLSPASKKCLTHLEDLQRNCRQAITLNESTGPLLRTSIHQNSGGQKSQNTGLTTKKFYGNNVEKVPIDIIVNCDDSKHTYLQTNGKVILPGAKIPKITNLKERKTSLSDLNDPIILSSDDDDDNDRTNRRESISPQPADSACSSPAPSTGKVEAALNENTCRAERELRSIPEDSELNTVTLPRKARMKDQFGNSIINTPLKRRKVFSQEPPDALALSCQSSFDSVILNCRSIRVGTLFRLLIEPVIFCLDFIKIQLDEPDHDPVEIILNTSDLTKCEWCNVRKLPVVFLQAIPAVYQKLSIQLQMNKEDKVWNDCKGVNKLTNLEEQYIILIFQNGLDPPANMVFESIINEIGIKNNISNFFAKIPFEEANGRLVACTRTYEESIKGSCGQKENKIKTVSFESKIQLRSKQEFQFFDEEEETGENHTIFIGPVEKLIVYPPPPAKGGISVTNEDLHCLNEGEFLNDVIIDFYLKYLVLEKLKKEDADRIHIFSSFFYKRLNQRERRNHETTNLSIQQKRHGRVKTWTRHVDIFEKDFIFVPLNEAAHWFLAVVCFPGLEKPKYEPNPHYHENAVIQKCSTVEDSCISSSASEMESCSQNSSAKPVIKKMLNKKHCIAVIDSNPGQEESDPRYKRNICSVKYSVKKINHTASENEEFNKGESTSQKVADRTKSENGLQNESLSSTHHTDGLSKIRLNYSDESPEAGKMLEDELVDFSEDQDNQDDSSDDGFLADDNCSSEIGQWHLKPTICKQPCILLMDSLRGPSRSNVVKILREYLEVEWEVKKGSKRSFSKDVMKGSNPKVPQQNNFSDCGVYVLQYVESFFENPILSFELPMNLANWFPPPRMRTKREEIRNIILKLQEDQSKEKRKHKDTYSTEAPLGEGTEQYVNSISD

[5] = target: Tyrosyl-DNA phosphodiesterase 2 (Homo sapiens, UniProt O95551); test: human TDP2 enzyme inhibitors, dose response, biochemical, epi absorbance, IC50 (AID 743297)
[6] = target: T4, Protein RecA (Mycobacterium tuberculosis, UniProt P9WHJ3); test: Fluorescence Cell-Free Homogeneous Dose Retest to Identify Inhibitors of RecA-Intein Splicing Activity. [Related pubchem assays (depositor defined):AID2097, AID2223, AID489010, AID492950]; assay type: functional
T4 sequence (P9WHJ3 whole entry): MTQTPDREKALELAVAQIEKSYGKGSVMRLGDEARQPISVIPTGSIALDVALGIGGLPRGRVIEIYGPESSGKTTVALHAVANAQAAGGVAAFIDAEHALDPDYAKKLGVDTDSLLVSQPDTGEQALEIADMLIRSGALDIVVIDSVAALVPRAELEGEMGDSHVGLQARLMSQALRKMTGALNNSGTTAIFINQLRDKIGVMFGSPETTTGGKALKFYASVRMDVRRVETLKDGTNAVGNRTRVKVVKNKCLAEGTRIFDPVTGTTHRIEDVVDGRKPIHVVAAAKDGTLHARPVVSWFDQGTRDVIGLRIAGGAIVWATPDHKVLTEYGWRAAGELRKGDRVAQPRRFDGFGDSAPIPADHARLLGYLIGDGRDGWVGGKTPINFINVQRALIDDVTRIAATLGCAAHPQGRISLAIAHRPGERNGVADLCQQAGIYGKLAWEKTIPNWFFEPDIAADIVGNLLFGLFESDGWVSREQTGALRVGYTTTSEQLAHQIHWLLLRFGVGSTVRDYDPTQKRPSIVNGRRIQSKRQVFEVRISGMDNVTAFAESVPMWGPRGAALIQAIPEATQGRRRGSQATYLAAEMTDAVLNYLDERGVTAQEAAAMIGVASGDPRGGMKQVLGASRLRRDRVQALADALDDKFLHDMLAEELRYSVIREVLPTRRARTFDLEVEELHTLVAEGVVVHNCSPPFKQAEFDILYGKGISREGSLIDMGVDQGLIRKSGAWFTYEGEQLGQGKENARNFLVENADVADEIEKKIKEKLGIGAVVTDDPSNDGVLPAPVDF

[7] = A375 melanoma cell cytotoxicity, dose response, counter-screen for MITF inhibitor project, CellTiter-Glo luminescence, dry powder, set 2 (AID 624489); assay type: functional, cell-based; conditions: A-375;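 further: actives are compounds lowering A375 viability meaning general cytotoxicity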

Chain of DNA (cytosine-5)-methyltransferase 1 (P26358 whole entry): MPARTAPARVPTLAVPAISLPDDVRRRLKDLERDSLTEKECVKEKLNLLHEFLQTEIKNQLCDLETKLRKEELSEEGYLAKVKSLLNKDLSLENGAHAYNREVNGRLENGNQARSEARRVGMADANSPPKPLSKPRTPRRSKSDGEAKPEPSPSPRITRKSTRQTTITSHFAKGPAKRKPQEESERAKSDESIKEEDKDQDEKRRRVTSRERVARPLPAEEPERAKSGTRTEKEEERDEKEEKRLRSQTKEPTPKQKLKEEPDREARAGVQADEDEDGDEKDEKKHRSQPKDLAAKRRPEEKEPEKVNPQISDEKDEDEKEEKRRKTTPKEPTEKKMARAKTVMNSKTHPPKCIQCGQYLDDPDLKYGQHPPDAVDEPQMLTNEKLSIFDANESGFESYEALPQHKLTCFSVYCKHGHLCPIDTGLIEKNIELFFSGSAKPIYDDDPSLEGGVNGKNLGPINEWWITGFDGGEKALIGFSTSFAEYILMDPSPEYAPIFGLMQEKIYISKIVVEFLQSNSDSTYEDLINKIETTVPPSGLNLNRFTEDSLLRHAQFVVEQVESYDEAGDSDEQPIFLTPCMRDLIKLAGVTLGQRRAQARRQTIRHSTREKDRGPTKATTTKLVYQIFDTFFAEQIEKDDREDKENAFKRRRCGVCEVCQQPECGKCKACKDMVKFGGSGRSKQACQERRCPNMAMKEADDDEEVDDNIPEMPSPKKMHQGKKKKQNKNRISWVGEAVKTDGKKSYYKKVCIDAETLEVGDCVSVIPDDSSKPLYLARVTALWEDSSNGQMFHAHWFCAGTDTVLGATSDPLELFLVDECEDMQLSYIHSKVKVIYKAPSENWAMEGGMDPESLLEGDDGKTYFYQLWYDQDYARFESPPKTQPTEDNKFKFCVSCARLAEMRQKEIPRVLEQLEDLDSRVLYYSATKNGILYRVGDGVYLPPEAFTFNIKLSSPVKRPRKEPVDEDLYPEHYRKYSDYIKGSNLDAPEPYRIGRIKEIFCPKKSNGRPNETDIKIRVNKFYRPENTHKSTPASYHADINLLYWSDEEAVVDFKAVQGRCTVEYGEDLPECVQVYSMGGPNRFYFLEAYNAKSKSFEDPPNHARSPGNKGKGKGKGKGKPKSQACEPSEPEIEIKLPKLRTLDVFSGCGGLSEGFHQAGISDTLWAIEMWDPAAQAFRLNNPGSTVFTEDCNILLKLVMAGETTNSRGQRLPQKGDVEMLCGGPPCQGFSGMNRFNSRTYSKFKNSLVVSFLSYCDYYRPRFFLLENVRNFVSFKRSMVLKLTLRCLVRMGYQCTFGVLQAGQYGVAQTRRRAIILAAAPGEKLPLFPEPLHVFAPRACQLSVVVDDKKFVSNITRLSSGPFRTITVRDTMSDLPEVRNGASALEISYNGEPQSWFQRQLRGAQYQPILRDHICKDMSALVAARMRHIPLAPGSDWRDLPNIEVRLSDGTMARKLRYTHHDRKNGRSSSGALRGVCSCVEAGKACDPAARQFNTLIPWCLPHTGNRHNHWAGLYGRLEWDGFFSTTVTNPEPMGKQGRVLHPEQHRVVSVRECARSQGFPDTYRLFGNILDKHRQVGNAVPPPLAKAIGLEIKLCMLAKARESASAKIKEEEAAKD
Chain of Tyrosyl-DNA phosphodiesterase 2 (O95551 whole entry): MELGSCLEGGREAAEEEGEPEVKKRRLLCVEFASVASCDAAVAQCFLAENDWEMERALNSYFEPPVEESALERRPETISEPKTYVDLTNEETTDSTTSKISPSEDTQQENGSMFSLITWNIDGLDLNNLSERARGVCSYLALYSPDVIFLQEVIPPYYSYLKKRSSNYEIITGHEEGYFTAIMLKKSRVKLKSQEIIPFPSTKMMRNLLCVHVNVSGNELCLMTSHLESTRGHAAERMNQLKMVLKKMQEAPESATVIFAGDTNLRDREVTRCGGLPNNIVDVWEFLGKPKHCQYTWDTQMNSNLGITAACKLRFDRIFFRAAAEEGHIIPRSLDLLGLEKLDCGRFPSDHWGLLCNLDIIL

Structure (SMILES) | IC50 [1] | EC50 [2] | IC50 [3] | IC50 [4] | IC50 [5] | EC50 [6] | AC50 [7]
Oc1[nH]c2ccccc2c1N=Nc1ccc(F)cc1 | 19.3 µM (active) | > 99 µM (inactive) | 7.58 µM (active) | 2.03 µM (active) |  |  | 
O=C1C(Nc2ccccc2)=C(N2CCCCC2)C(=O)c2ccccc21 |  |  |  |  | > 128 µM (inactive) | 2.21 µM (active) | 24.9 µM (active)
